Series [1] in a line: Stability of L-DOPA ethyl ester prepared according to Examples 1 and 2 (Table 2). Type of series: physicochemical. More on the design: key to COLOR: A: White with gray particles; B: Cream; C: WhiteYellow; D: Yellow; E: Dark Yellow; F: Gray; IMPURITIES: unit not given beside the values. The text has this:
| STABILITY OF L-DOPA ESTER PREPARED

The nature of series [2]: Hygroscopicity, stability and crystallization of L-DOPA ethyl ester hydrochloride / free base made by conventional methods. Type of series: physicochemical. The text has this: GB Patent No. 1,364,505 and corresponding U.S. Pat. No. 3,803,120, assigned to Hoffman-La Roche, describe the synthesis of L-DOPA ethyl ester hydrochloride salt and free base. This compound synthesized is used as an intermediate in the synthesis of other compounds and is not characterized in the patent specification. […] This material cannot be used for pharmaceutical compositions.

The conditions of series [3]: literature, hydrochloride, cited from earlier work.
The mark [4] stands for this setting: synthesized by the methods of GB 1,364,505 / U.S. 3,803,120.

Counter-ions that a name gives are not always drawn. Like-named read-outs stand apart in the source and are kept apart here.

Regarding `CCOC(=O)[C@@H](N)Cc1ccc(O)c(O)c1` [Example 2a, L-DOPA ethyl ester], the COLOR result is “D” in series [1] (25° C. -N2, 1 m); “E” in series [1] (25° C. -N2, 2 m); “E” in series [1] (40° C., 1 m); “E” in series [1] (40° C., 2 m). Further, the IMPURITIES in series [1] (25° C. -N2, 1 m) worked out at 16.9; in series [1] (25° C. -N2, 2 m), 17.2; in series [1] (40° C., 1 m) it was 20.9; in series [1] (40° C., 2 m) it was 19.3. Moreover, the ASSAY in series [1] (25° C. -N2, 1 m, 43200 min) is 83.1%; in series [1] (25° C. -N2, 2 m, 86400 min), 84.4%; in series [1] (40° C., 1 m, 43200 min), 82.6%; in series [1] (40° C., 2 m, 86400 min), 80.0%; in series [1] (t = 0), 87%.
In the case of `CCOC(=O)[C@@H](N)Cc1ccc(O)c(O)c1` [Example 2c, L-DOPA ethyl ester], the COLOR entry in series [1] (25° C. -N2, 1 m) is “D”; in series [1] (25° C. -N2, 2 m), “D/E”; in series [1] (25° C. -N2, 4 m), “F”; in series [1] (40° C., 1 m) it was “D”; in series [1] (40° C., 2 m), “D/E”; in series [1] (40° C., 4 m) it was “F”. Also, the IMPURITIES in series [1] (25° C. -N2, 1 m) came to 5.6; in series [1] (25° C. -N2, 2 m), 5.1; in series [1] (25° C. -N2, 4 m), 5.6; in series [1] (40° C., 1 m), 5.7; in series [1] (40° C., 2 m) it was 4.8; in series [1] (40° C., 4 m) it was 6.4. The ASSAY in series [1] (25° C. -N2, 1 m, 43200 min) is 94.0%; in series [1] (25° C. -N2, 2 m, 86400 min), 93.6%; in series [1] (25° C. -N2, 4 m, 172800 min), 94.1%; in series [1] (40° C., 1 m, 43200 min), 91.7%; in series [1] (40° C., 2 m, 86400 min) it was 93%; in series [1] (40° C., 4 m, 172800 min), 93%. Further, the ASSAY in series [1] (t = 0) amounted to 95.8%.
Regarding `CCOC(=O)[C@@H](N)Cc1ccc(O)c(O)c1` [Example 2b, L-DOPA ethyl ester], the COLOR entry in series [1] (25° C. -N2, 1 m) is listed as “D/E”; in series [1] (25° C. -N2, 2 m) it was “D/E”; in series [1] (25° C. -N2, 4 m), “D/E”; in series [1] (40° C., 1 m), “D/E”; in series [1] (40° C., 2 m), “D/E”; in series [1] (40° C., 4 m), “F”. For the same molecule, the IMPURITIES is reported as 13.0 in series [1] (25° C. -N2, 1 m); 13.9 in series [1] (25° C. -N2, 2 m); 9.7 in series [1] (25° C. -N2, 4 m); 14.0 in series [1] (40° C., 1 m); 18.2 in series [1] (40° C., 2 m). Moreover, the ASSAY is on record as 88.0% in series [1] (25° C. -N2, 1 m, 43200 min); 86.8% in series [1] (25° C. -N2, 2 m, 86400 min); 88.1% in series [1] (25° C. -N2, 4 m, 172800 min); 85.1% in series [1] (40° C., 1 m, 43200 min); 83.3% in series [1] (40° C., 2 m, 86400 min); 79.2% in series [1] (40° C., 4 m, 172800 min). For the same molecule, the ASSAY in series [1] (t = 0) is given as 87.9%.
For the molecule `CCOC(=O)[C@@H](N)Cc1ccc(O)c(O)c1` [L-DOPA ethyl ester hydrochloride salt, L-DOPA ethyl ester hydrochloride], the hygroscopicity entry in series [2] (applicant's own finding, hydrochloride) is “hygroscopic nature”; in series [3], “hygroscopic”; in series [3] (listed as ethyl ester) it was “hygroscopic potential”. Further, the crystallization entry was “difficult to crystallize” in series [2] (setting [4]), “difficult to crystallize” in series [3] and “could not be crystallized as its hydrochloride salt” in series [3] (listed as ethyl ester). Moreover, in series [2] (setting [4]), the stability entry is “not stable”.

The values above are taken from patent publication US5607969A, “L-DOPA ethyl ester to treat Parkinson's disease” (priority 1995, dated 1997).
